US11458121B2, “Therapeutic compounds and methods to treat infection” (priority 2017, dated 2022)
Values after ≈ are worked out from the molar mass of the structure shown.

Columns and labels:
[1] = test system: P. aeruginosa PAO1; assay: MIC assay in the presence of a bacterial efflux pump inhibitor (EPI); assay type: cell-based, Pseudomonas aeruginosa; conditions: P. aeruginosa PAO1; for Enhancement (intrinsic MIC versus MIC with EPI): fold enhancement with 12.5 ug/ml EPI; for Antibiotic Activity Against P. aeruginosa MIC with EPI: with 12.5 ug/ml of EPI (2S,4R)-4-(ammoniomethyl)-2-((6-(4-fluorophenyl)-1H-indole-2-carboxamido)methyl)pyrrolidin-1-ium
Method: The ability of a compound to produce an antibiotic effect can be determined using a method as described in Example 42. […] MIC assays were conducted in accordance with Clinical and Laboratory Standards Institute (CLSI) guidelines for broth microdilution. A 96-well plate containing cation-adjusted Mueller-Hinton (CAMH broth with 2-fold serial dilution of compounds was inoculated with log-phase bacterial at 5×10^5 CFU/mL. The final volume in each well was 100 μL. Each compound was tested in duplicate. The microtiter plates were incubated in an aerobic environment for 18 hours at 37° C. Then the bacterial growth was tested by reading the plate with a VersaMax plate reader (Molecular Devices, Inc.) at 600 nm. The MIC was defined as the lowest compound concentration that inhibited 90% of bacteria growth. MIC Assays in the Presence of a Bacterial Efflux Inhibitor The EPI assay for the purposes of these studies represents a MIC assay in which the MIC of the antibiotic against the bacteria is tested in the presence of an experimental efflux pump inhibitor (EPI). The highest concentration of the EPI present in the assay typically is ½ of the intrinsic MIC of the compound. […] Using serial dilutions of the EPI, its enhancement of antibiotic activity was then evaluated. The relative EPI activity was decided by comparing the MIC of the antibiotic in the presence of the EPI compound with the intrinsic MIC of the antibiotic alone. For comparative purposes, we generally used EPIs at concentration of 12.5 and 6.25 μg/ml against varying concentration of our test antibiotic.

[2] = test system: P. aeruginosa PAO1; assay: Intrinsic MIC assay (CLSI broth microdilution); assay type: cell-based; conditions: Pseudomonas aeruginosa, 18 h; P. aeruginosa PAO1; compound alone, without EPI; MIC = lowest concentration inhibiting 90% of growth; read-out: Antibiotic Activity Against P. aeruginosa Intrinsic MIC
Description: As used herein, the term “minimum inhibitory concentration (MIC)” refers to the lowest concentration of a compound (e.g., an antibiotic) that prevents visible growth of a bacterium. Assays for measuring the MIC of a compound are known in the art, for example, as described herein. As used herein, the term “intrinsic MIC” refers the MIC of a compound (e.g., an antibiotic) for the particular bacterial species that has not been pre-exposed to the compound. Intrinsic MIC Assays MIC assays were conducted in accordance with Clinical and Laboratory Standards Institute (CLSI) guidelines for broth microdilution. A 96-well plate containing cation-adjusted Mueller-Hinton (CAMH broth with 2-fold serial dilution of compounds was inoculated with log-phase bacterial at 5×10^5 CFU/mL. The final volume in each well was 100 μL. Each compound was tested in duplicate. The microtiter plates were incubated in an aerobic environment for 18 hours at 37° C. Then the bacterial growth was tested by reading the plate with a VersaMax plate reader (Molecular Devices, Inc.) at 600 nm. The MIC was defined as the lowest compound concentration that inhibited 90% of bacteria growth. The intrinsic MIC of the experimental EPIs was tested with the method described. […] The following Gram-negative bacterial strains were included in these assays: Pseudomonas aeruginosa PAO1

[3] = test system: E. coli 25922; assay: Intrinsic MIC assay (CLSI broth microdilution); assay type: cell-based, Escherichia coli; conditions: Escherichia coli, 18 h; E. coli 25922; compound alone, without EPI; read-out: Antibiotic Activity Against E. coli Intrinsic MIC
Description: As used herein, the term “minimum inhibitory concentration (MIC)” refers to the lowest concentration of a compound (e.g., an antibiotic) that prevents visible growth of a bacterium. Assays for measuring the MIC of a compound are known in the art, for example, as described herein. As used herein, the term “intrinsic MIC” refers the MIC of a compound (e.g., an antibiotic) for the particular bacterial species that has not been pre-exposed to the compound. Intrinsic MIC Assays MIC assays were conducted in accordance with Clinical and Laboratory Standards Institute (CLSI) guidelines for broth microdilution. A 96-well plate containing cation-adjusted Mueller-Hinton (CAMH broth with 2-fold serial dilution of compounds was inoculated with log-phase bacterial at 5×10^5 CFU/mL. The final volume in each well was 100 μL. Each compound was tested in duplicate. The microtiter plates were incubated in an aerobic environment for 18 hours at 37° C. Then the bacterial growth was tested by reading the plate with a VersaMax plate reader (Molecular Devices, Inc.) at 600 nm. The MIC was defined as the lowest compound concentration that inhibited 90% of bacteria growth. The intrinsic MIC of the experimental EPIs was tested with the method described. […] The following Gram-negative bacterial strains were included in these assays: Escherichia coli ATCC 25922

NC1CCCc2c1[nH]c1ccc(Br)cc21 (stereo not drawn) [Example 1, 6-Bromo-2,3,4,9-tetrahydro-1H-carbazol-1-amine]
Enhancement (intrinsic MIC versus MIC with EPI) [1]: (64x) | Antibiotic Activity Against P. aeruginosa MIC with EPI [1]: 0.5 mg/L | MIC [2]: 32 mg/L (≈ 121 µM) | MIC [3]: 8 mg/L (≈ 30.2 µM)

NC1CCCc2c1[nH]c1ccc(-c3ccc(F)cc3)cc21 (stereo not drawn) [Example 2, 6-(4-Fluorophenyl)-2,3,4,9-tetrahydro-1H-carbazol-1-amine]
Enhancement (intrinsic MIC versus MIC with EPI) [1]: (64x) | Antibiotic Activity Against P. aeruginosa MIC with EPI [1]: 4 mg/L | MIC [2]: 256 mg/L (≈ 913 µM) | MIC [3]: 16 mg/L (≈ 57.1 µM)

COc1ccc(-c2ccc3[nH]c4c(c3c2)CCCC4N)cc1 (stereo not drawn) [Example 3, 6-(4-Methoxyphenyl)-2,3,4,9-tetrahydro-1H-carbazol-1-amine]
Enhancement (intrinsic MIC versus MIC with EPI) [1]: (>16x) | Antibiotic Activity Against P. aeruginosa MIC with EPI [1]: 16 mg/L | MIC [2]: > 256 mg/L | MIC [3]: 32 mg/L (≈ 109 µM)

NC1CCCc2c1[nH]c1ccc(-c3ccc(C(F)(F)F)cc3)cc21 (stereo not drawn) [Example 4, 6-(4-(Trifluoromethyl)phenyl)-2,3,4,9-tetrahydro-1H-carbazol-1-amine]
Enhancement (intrinsic MIC versus MIC with EPI) [1]: (>64x) | Antibiotic Activity Against P. aeruginosa MIC with EPI [1]: 4 mg/L | MIC [2]: > 256 mg/L | MIC [3]: 16 mg/L (≈ 48.4 µM)

NC1CCCc2c1[nH]c1cc(Br)ccc21 (stereo not drawn) [Example 5a, 7-Bromo-2,3,4,9-tetrahydro-1H-carbazol-1-amine]
Enhancement (intrinsic MIC versus MIC with EPI) [1]: (64x) | Antibiotic Activity Against P. aeruginosa MIC with EPI [1]: 1 mg/L | MIC [2]: 64 mg/L (≈ 241 µM) | MIC [3]: 32 mg/L (≈ 121 µM)

NC1CCCc2c1[nH]c1cccc(Br)c21 (stereo not drawn) [Example 5b, 5-Bromo-2,3,4,9-tetrahydro-1H-carbazol-1-amine]
Enhancement (intrinsic MIC versus MIC with EPI) [1]: (64x) | Antibiotic Activity Against P. aeruginosa MIC with EPI [1]: 2 mg/L | MIC [2]: 128 mg/L (≈ 483 µM) | MIC [3]: 16 mg/L (≈ 60.3 µM)

CC(C)(C)OC(=O)NC1CCCc2c1[nH]c1ccc(Br)cc21 (stereo not drawn) [Example 6, Tert-Butyl (6-bromo-2,3,4,9-tetrahydro-1H-carbazol-1-yl)carbamate]
Enhancement (intrinsic MIC versus MIC with EPI) [1]: (4x) | Antibiotic Activity Against P. aeruginosa MIC with EPI [1]: >64 mg/L | MIC [2]: > 256 mg/L | MIC [3]: > 256 mg/L

CNC1CCCc2c1[nH]c1ccc(Br)cc21 (stereo not drawn) [Example 7, 6-Bromo-N-methyl-2,3,4,9-tetrahydro-1H-carbazol-1-amine]
Enhancement (intrinsic MIC versus MIC with EPI) [1]: (32x) | Antibiotic Activity Against P. aeruginosa MIC with EPI [1]: 8 mg/L | MIC [2]: 256 mg/L (≈ 917 µM) | MIC [3]: 32 mg/L (≈ 115 µM)

CC(=O)NC1CCCc2c1[nH]c1ccc(Br)cc21 (stereo not drawn) [Example 8, N-(6-Bromo-2,3,4,9-tetrahydro-1H-carbazol-1-yl)acetamide]
Enhancement (intrinsic MIC versus MIC with EPI) [1]: (4x) | Antibiotic Activity Against P. aeruginosa MIC with EPI [1]: >64 mg/L | MIC [2]: > 256 mg/L | MIC [3]: > 256 mg/L

O=C(NC1CCCc2c1[nH]c1ccc(Br)cc21)c1ccccc1 (stereo not drawn) [Example 9, N-(6-Bromo-2,3,4,9-tetrahydro-1H-carbazol-1-yl)benzamide]
Enhancement (intrinsic MIC versus MIC with EPI) [1]: (4x) | Antibiotic Activity Against P. aeruginosa MIC with EPI [1]: >64 mg/L | MIC [2]: > 256 mg/L | MIC [3]: > 256 mg/L

CC(C)(C)OC(=O)NC1CCCc2c1[nH]c1cc(Br)ccc21 (stereo not drawn) [Example 11, Tert-Butyl (7-bromo-2,3,4,9-tetrahydro-1H-carbazol-1-yl)carbamate]
Enhancement (intrinsic MIC versus MIC with EPI) [1]: (4x) | Antibiotic Activity Against P. aeruginosa MIC with EPI [1]: >64 mg/L | MIC [2]: > 256 mg/L | MIC [3]: > 256 mg/L

NC1CCCc2c1[nH]c1ccc(F)cc21 (stereo not drawn) [Example 12, 6-Fluoro-2,3,4,9-tetrahydro-1H-carbazol-1-amine]
Enhancement (intrinsic MIC versus MIC with EPI) [1]: (64x) | Antibiotic Activity Against P. aeruginosa MIC with EPI [1]: 2 mg/L | MIC [2]: 128 mg/L (≈ 627 µM) | MIC [3]: 64 mg/L (≈ 313 µM)

NC1CCCc2c1[nH]c1ccc(Cl)cc21 (stereo not drawn) [Example 13, 6-Chloro-2,3,4,9-tetrahydro-1H-carbazol-1-amine]
Enhancement (intrinsic MIC versus MIC with EPI) [1]: (16x) | Antibiotic Activity Against P. aeruginosa MIC with EPI [1]: 1 mg/L | MIC [2]: 128 mg/L (≈ 580 µM) | MIC [3]: 16 mg/L (≈ 72.5 µM)

NC1CCCc2c1[nH]c1ccc(C(F)(F)F)cc21 (stereo not drawn) [Example 14, 6-(Trifluoromethyl)-2,3,4,9-tetrahydro-1H-carbazol-1-amine]
Enhancement (intrinsic MIC versus MIC with EPI) [1]: (32x) | Antibiotic Activity Against P. aeruginosa MIC with EPI [1]: 2 mg/L | MIC [2]: 64 mg/L (≈ 252 µM) | MIC [3]: 64 mg/L (≈ 252 µM)

NC1CCCc2c1[nH]c1ccc(OC(F)(F)F)cc21 (stereo not drawn) [Example 15, 6-(Trifluoromethoxy)-2,3,4,9-tetrahydro-1H-carbazol-1-amine]
Enhancement (intrinsic MIC versus MIC with EPI) [1]: (8x) | Antibiotic Activity Against P. aeruginosa MIC with EPI [1]: 16 mg/L | MIC [2]: 128 mg/L (≈ 474 µM) | MIC [3]: 64 mg/L (≈ 237 µM)

N#Cc1ccc2[nH]c3c(c2c1)CCCC3N (stereo not drawn) [Example 16, 1-Amino-2,3,4,9-tetrahydro-1H-carb azole-6-carbonitrile]
Enhancement (intrinsic MIC versus MIC with EPI) [1]: (>8x) | Antibiotic Activity Against P. aeruginosa MIC with EPI [1]: 32 mg/L | MIC [2]: > 256 mg/L | MIC [3]: 256 mg/L (≈ 1210 µM)

NC1CCCc2c1[nH]c1c(Br)cccc21 (stereo not drawn) [Example 17, 8-Bromo-2,3,4,9-tetrahydro-1H-carbazol-1-amine]
Enhancement (intrinsic MIC versus MIC with EPI) [1]: (>2x) | Antibiotic Activity Against P. aeruginosa MIC with EPI [1]: 128 mg/L | MIC [2]: > 256 mg/L | MIC [3]: 64 mg/L (≈ 241 µM)

COc1ccc2[nH]c3c(c2c1)CCCC3N.Cl (stereo not drawn) [Example 18, 6-Methoxy-2,3,4,9-tetrahydro-1H-carbazol-1-amine Hydrogen Chloride Salt]
Enhancement (intrinsic MIC versus MIC with EPI) [1]: (>8x) | Antibiotic Activity Against P. aeruginosa MIC with EPI [1]: 32 mg/L | MIC [2]: > 256 mg/L | MIC [3]: > 256 mg/L

Cn1c2c(c3cc(Br)ccc31)CCCC2N (stereo not drawn) [Example 19, 6-Bromo-9-methyl-2,3,4,9-tetrahydro-1H-carbazol-1-amine]
Enhancement (intrinsic MIC versus MIC with EPI) [1]: (4x) | Antibiotic Activity Against P. aeruginosa MIC with EPI [1]: 64 mg/L | MIC [2]: 256 mg/L (≈ 917 µM) | MIC [3]: 64 mg/L (≈ 229 µM)

Cl.NC1c2[nH]c3ccc(Br)cc3c2CCC1F (stereo not drawn) [Example 20, 6-Bromo-2-fluoro-2,3,4,9-tetrahydro-1H-carbazol-1-amine Hydrogen Chloride Salt]
Enhancement (intrinsic MIC versus MIC with EPI) [1]: (>8x) | Antibiotic Activity Against P. aeruginosa MIC with EPI [1]: 32 mg/L | MIC [2]: > 256 mg/L | MIC [3]: 64 mg/L

NC1CCCc2c1[nH]c1cc(Cl)c(Cl)cc21 (stereo not drawn) [Example 21, 6,7-Dichloro-2,3,4,9-tetrahydro-1H-carbazol-1-amine]
Enhancement (intrinsic MIC versus MIC with EPI) [1]: (16x) | Antibiotic Activity Against P. aeruginosa MIC with EPI [1]: 4 mg/L | MIC [2]: 64 mg/L (≈ 251 µM) | MIC [3]: 8 mg/L (≈ 31.4 µM)

NC1CCCc2c1[nH]c1ccc(Cl)c(Cl)c21 (stereo not drawn) [Example 22, 5,6-Dichloro-2,3,4,9-tetrahydro-1H-carbazol-1-amine]
Enhancement (intrinsic MIC versus MIC with EPI) [1]: (>256x) | Antibiotic Activity Against P. aeruginosa MIC with EPI [1]: <0.125 mg/L | MIC [2]: 32 mg/L (≈ 125 µM) | MIC [3]: 4 mg/L (≈ 15.7 µM)

NCCCNC1CCCc2c1[nH]c1ccc(Br)cc21 (stereo not drawn) [Example 40, N^1-(6-Bromo-2,3,4,9-tetrahydro-1H-carbazol-1-yl)propane-1,3-diamine]
MIC [2]: 32 mg/L (≈ 99.3 µM) | MIC [3]: 32 mg/L (≈ 99.3 µM)
